Measured values as given in patent publication US5219884A, “Immunosuppressant” (Taito Co., Ltd., priority 1990, dated 1993).
Values after ≈ are worked out from the molar mass of the structure shown. Like-named read-outs stand apart in the source and are kept apart here.

Legend:
[1] = system: human allogenic MLR (peripheral blood lymphocytes); experiment: human allogenic MLR-suppressive activity; type: cell-based
Description: The human allogenic MLR-suppressive activity was assayed as follows:
Human peripheral blood lymphocytes obtained by Ficoll-Paque density gradient centrifugation of normal human peripheral blood were suspended in the RPMI1640 medium supplemented with 10% FCS, placed in plastic dishes, and incubated at 37° C. in an atmosphere of 5% carbon dioxide for 2 hours. After termination of incubation, the supernatant after gentle pipetting was harvested and centrifuged (1000 rpm, for 5 minutes) to obtain plastic-nonadherent cells. The plastic-nonadherent cells were allowed to pass through a nylon-wool column to give nylon-nonadherent cells, and the concentration of the cell suspension was adjusted to 4×10^6 cells/ml by using the RPMI1640 culture medium supplemented with 10% FCS, and used as the responder cell suspension.
The plastic-adherent cells were removed from the plastic dish by vigorous pipetting after addition of phosphate buffered saline supplemented with 5% FCS and 0.02% disodium ethylenediamine-tetraacetic acid (EDTA). The plastic-adherent cells were treated with 40 μg/ml of mitomycin C at 37° C. for 60 minutes, washed three times, and suspended to the concentration of 4×10^6 cells/ml in the RPMI1640 culture medium supplemented with 10% FCS. The resultant suspension was used as the stimulator cell suspension. Fifty μl of the responder cell suspension from the donor A or C was mixed with 50 μl of the stimulator cell suspension from the donor B or D, to which 100 μl of the test substance was added, and cultured at 37° C. in the an atmosphere 5% carbon dioxide for 5 days.
After termination of the culture, 1.0 μCi/well of ^3 H-thymidine was added, and after 18 hours of culture, the cells were harvested by a cell-harvester. The radioactivity incorporated into the cells was measured by a liquid scintillation counter as the index of blastogenic response of lymphocytes in human allogenic MLR. The suppression of human allogenic MLR was evaluated by calculating the percent suppression by the following formula. [formula]

[2] = system: IL2-dependent mouse cell line CTLL-2; experiment: suppression of IL-2 induced 3H-thymidine incorporation of CTLL-2; type: cell-based; conditions: for inhibition at 0.1 µg/mL / inhibition at 10 µg/mL / inhibition at 0.01 µg/mL / inhibition at 1 µg/mL: Mus musculus; for inhibition at 0.1 µg/mL / inhibition at 10 µg/mL / inhibition at 0.01 µg/mL: read-out: Suppression
Description: IL2-dependent mouse cell line CTLL-2 cells were suspended in the RPMI1640 culture medium supplemented with 30% FCS to a concentration of 2×10^5 cells/ml. The suspension (50 μl) and 50 μl of concanavalin A-stimulated rat spleen cell culture supernatants containing IL2 were added to each well of 96-well microculture plates in which 100 μl of the test substance had been placed. After culturing at 37° C. in an atmosphere of 5% carbon dioxide for 20, 44, or 68 hours, 0.5 μCi/well of ^3 H-thymidine was added, and cultured for 4 hours under the same conditions. After termination of the culture, the cells were harvested by a cell harvester, and the radioactivity incorporated into the cells was measured by a liquid scintillation counter.

[3] = system: anti-sheep red blood cell antibody production in BALB/c mice; experiment: suppression of mouse anti-sheep red blood cell antibody production (PFC); type: in vivo
Description: (§1) Males 5- to 7-week-old BALB/c mice were immunized with sheep red blood cells (SRBC), and the spleen was resected three or four days later. By counting the plaque forming cells (PFC), suppressive effect on the production of the anti-sheep red blood cell antibody was examined as follows.
(§2) BALB/c mice were immunized with SRBC (1×10^7 cells/mouse, intravenous administration), and ISP-I in the Example 1 was administered intraperitoneally for 4 consecutive days from the day of immunization. Four days after immunization (the next day of the final administration), the spleen was resected and the anti-sheep red blood cell antibody-producing cells were determined by the direct plaque method. At the same time the body weight of the mouse, wet weight of the thymus and the spleen, and numbers of spleen cells were also determined.
(§3) BALB/c mice were immunized with SRBC (5×10^7 cells/mouse, intravenous administration), and the compound in the Example 5 was administered intraperitoneally for 4 consecutive days from the day of immunization. Four days after immunization (the next day of the final administration), the spleen was resected, and the anti-sheep red blood cell antibody-producing cells were determined by the direct plaque method. At the same time, the body weight of the mouse, wet weight of the thymus and the spleen, and numbers of spleen cells were also determined.

[4] = body weight, wet weight of thymus and spleen, number of spleen cells in SRBC-immunized mice; type: in vivo, mouse
Description: as §1, §2, §3

[5] = Experiment 1, 0.3 mg/kg/day i.p., 4 days
[6] = Experiment 1, 1 mg/kg/day i.p., 4 days
[7] = Experiment 1, 3 mg/kg/day i.p., 4 days

In the case of `CCCCCCC(=O)CCCCCC/C=C/CC(O)C(O)C(N)(CO)C(=O)O` (stereo not shown) [Example 1], the inhibition at 0.0001 µg/mL ([1]; Homo sapiens, Lymphocyte, donor A/donor B, 0.0001 μg/ml, read-out: Suppression) is reported as 51.8%, the inhibition at 0.001 µg/mL ([1]; Homo sapiens, Lymphocyte, donor A/donor B, 0.001 μg/ml, read-out: Suppression) is reported as 77.7% and the inhibition at 0.01 µg/mL ([1]; Homo sapiens, Lymphocyte, donor A/donor B, 0.01 μg/ml, read-out: Suppression) is reported as 73.3%. It also gave an inhibition at 0.1 µg/mL ([1]; Homo sapiens, Lymphocyte, donor A/donor B, 0.1 μg/ml, read-out: Suppression) of 79%, an inhibition at 1 µg/mL ([1]; Homo sapiens, Lymphocyte, donor A/donor B, 1 μg/ml, read-out: Suppression) of 80.1% and an inhibition at 10 pg/mL ([1]; Homo sapiens, Lymphocyte, donor C/donor D, 0.00001 μg/ml, read-out: Suppression) of 37.7%. For the same compound, the inhibition at 0.0001 µg/mL ([1]; Homo sapiens, Lymphocyte, donor C/donor D, 0.0001 μg/ml, read-out: Suppression) was 44%, the inhibition at 0.001 µg/mL ([1]; Homo sapiens, Lymphocyte, donor C/donor D, 0.001 μg/ml, read-out: Suppression) was 67.9% and the inhibition at 0.01 µg/mL ([1]; Homo sapiens, Lymphocyte, donor C/donor D, 0.01 μg/ml, read-out: Suppression) was 74.8%. For the same compound, the inhibition at 0.1 µg/mL ([1]; Homo sapiens, Lymphocyte, donor C/donor D, 0.1 μg/ml, read-out: Suppression) was 79.2%, the inhibition at 1 µg/mL ([1]; Homo sapiens, Lymphocyte, donor C/donor D, 1 μg/ml, read-out: Suppression) was 76.5% and the inhibition at 10 µg/mL ([1]; Homo sapiens, Lymphocyte, donor C/donor D, 10 μg/ml, read-out: Suppression) was 88.8%. It also gave an IC50 ([1]; Homo sapiens, Lymphocyte, read-out: 50%-inhibition concentration (IC50)) of 0.1 ng/mL (≈ 0.249 nM), an inhibition at 10 µg/mL ([1]; Homo sapiens, Lymphocyte, read-out: Suppression) of 100% and a 3H-thymidine uptake ([1]; donor A/donor B, 0.0001 μg/ml) of 12769 cpm. For the same compound, the 3H-thymidine uptake ([1]; donor A/donor B, 0.001 μg/ml) was 7190 cpm, the 3H-thymidine uptake ([1]; donor A/donor B, 0.01 μg/ml) was 8138 cpm and the 3H-thymidine uptake ([1]; donor A/donor B, 0.1 μg/ml) was 6922 cpm. The 3H-thymidine uptake ([1]; donor A/donor B, 1 μg/ml) was 6690 cpm, the 3H-thymidine uptake ([1]; donor A/donor B, 10 μg/ml) was 1082 cpm and the 3H-thymidine uptake ([1]; donor C/donor D, 0.00001 μg/ml) was 10896 cpm. The 3H-thymidine uptake ([1]; donor C/donor D, 0.0001 μg/ml) was 9806 cpm, the 3H-thymidine uptake ([1]; donor C/donor D, 0.001 μg/ml) was 5646 cpm and the 3H-thymidine uptake ([1]; donor C/donor D, 0.01 μg/ml) was 4460 cpm. For the same compound, the 3H-thymidine uptake ([1]; donor C/donor D, 0.1 μg/ml) was 3613 cpm, the 3H-thymidine uptake ([1]; donor C/donor D, 1 μg/ml) was 4167 cpm and the 3H-thymidine uptake ([1]; donor C/donor D, 10 μg/ml) was 2018 cpm. It also gave a 3H-thymidine uptake ([2]; 24 hrs, 0.01 μg/ml) of 6003 cpm, a 3H-thymidine uptake ([2]; 24 hrs, 0.1 μg/ml) of 3722 cpm and a 3H-thymidine uptake ([2]; 24 hrs, 1 μg/ml) of 3977 cpm. It also gave a 3H-thymidine uptake ([2]; 24 hrs, 10 μg/ml) of 1968 cpm, a 3H-thymidine uptake ([2]; 48 hrs, 0.01 μg/ml) of 19592 cpm and a 3H-thymidine uptake ([2]; 48 hrs, 0.1 μg/ml) of 7324 cpm. For the same compound, the 3H-thymidine uptake ([2]; 48 hrs, 1 μg/ml) was 4794 cpm, the 3H-thymidine uptake ([2]; 48 hrs, 10 μg/ml) was 1649 cpm and the 3H-thymidine uptake ([2]; 72 hrs, 0.01 μg/ml, control 78515 cpm) was 56688 cpm. It also gave a 3H-thymidine uptake ([2]; 72 hrs, 0.1 μg/ml, control 78515 cpm) of 2436 cpm, a 3H-thymidine uptake ([2]; 72 hrs, 1 μg/ml, control 78515 cpm) of 846 cpm and a 3H-thymidine uptake ([2]; 72 hrs, 10 μg/ml, control 78515 cpm) of 478 cpm. It also gave an inhibition at 0.1 µg/mL ([2]; CTLL-2, 24 h) of 45.5%, an inhibition at 10 µg/mL ([2]; CTLL-2, 72 h) of 100% and an inhibition at 0.01 µg/mL ([2]; CTLL-2, 24 hrs, 0.01 μg/ml) of 10.3%. For the same compound, the inhibition at 1 µg/mL ([2]; CTLL-2, 24 hrs, 1 μg/ml) was 41.5%, the inhibition at 10 µg/mL ([2]; CTLL-2, 24 hrs, 10 μg/ml) was 72.5% and the inhibition at 0.01 µg/mL ([2]; CTLL-2, 48 hrs, 0.01 μg/ml) was 22.7%. It also gave an inhibition at 0.1 µg/mL ([2]; CTLL-2, 48 hrs, 0.1 μg/ml) of 72.2%, an inhibition at 1 µg/mL ([2]; CTLL-2, 48 hrs, 1 μg/ml) of 82.4% and an inhibition at 10 µg/mL ([2]; CTLL-2, 48 hrs, 10 μg/ml) of 95.1%. The inhibition at 0.01 µg/mL ([2]; CTLL-2, 72 hrs, 0.01 μg/ml, control 78515 cpm) was 28%, the inhibition at 0.1 µg/mL ([2]; CTLL-2, 72 hrs, 0.1 μg/ml, control 78515 cpm) was 97.7% and the inhibition at 1 µg/mL ([2]; CTLL-2, 72 hrs, 1 μg/ml, control 78515 cpm) was 99.8%. The “Number of PFC per 1 × 10^7 cell” value [3, 5] was 1.4 ± 0.4 × 10^3 /1 × 10^7 cell, the “Number of PFC per spleen” value [3, 5] was 0.9 ± 0.3 × 10^4 /spleen and the “Number of PFC per 1 × 10^7 cell” value [3, 6] was 0.5 ± 0.2 × 10^3 /1 × 10^7 cell. The “Number of PFC per spleen” value [3, 6] was 0.3 ± 0.1 × 10^4 /spleen, the “Number of PFC per 1 × 10^7 cell” value [3, 7] was 0.2 ± 0.1 × 10^3 /1 × 10^7 cell and the “Number of PFC per spleen” value [3, 7] was 0.1 ± 0.0 × 10^4 /spleen. For the same compound, the “Number of spleen cells” value ([4]; Experiment 1, 0.3 mg/kg/day) was 1.4 ± 0.3 × 10^8 cell, the “Number of spleen cells” value ([4]; Experiment 1, 1 mg/kg/day) was 1.3 ± 0.4 × 10^8 cell and the “Number of spleen cells” value ([4]; Experiment 1, 3 mg/kg/day) was 1.3 ± 0.2 × 10^8 cell. It also gave a Body weight ([4]; mouse, in vivo, 0.3 mg/kg/day) of 23 ± 2 g, a Wet weight spleen ([4]; mouse, in vivo, 0.3 mg/kg/day) of 202 ± 4 mg and a Wet weight thymus ([4]; mouse, in vivo, 0.3 mg/kg/day) of 48 ± 5 mg. The Body weight ([4]; mouse, in vivo, 1 mg/kg/day) was 23 ± 1 g, the Wet weight spleen ([4]; mouse, in vivo, 1 mg/kg/day) was 206 ± 32 mg and the Wet weight thymus ([4]; mouse, in vivo, 1 mg/kg/day) was 50 ± 1 mg. The Body weight ([4]; mouse, in vivo, 3 mg/kg/day) was 19 ± 1 g, the Wet weight spleen ([4]; mouse, in vivo, 3 mg/kg/day) was 137 ± 17 mg and the Wet weight thymus ([4]; mouse, in vivo, 3 mg/kg/day) was 25 ± 14 mg.
In the case of `CCCCCCC(O)CCCCCC/C=C/CC1OC(=O)C(N)(CO)C1O` (stereo not shown) [Example 8], the 3H-thymidine uptake ([2]; 72 hrs, second run (control 30168 cpm), 0.1 μg/ml) is reported as 7262 cpm, the 3H-thymidine uptake ([2]; 72 hrs, second run (control 30168 cpm), 1 μg/ml) is reported as 1591 cpm and the inhibition at 0.1 µg/mL ([2]; CTLL-2, 72 hrs, second run (control 30168 cpm), 0.1 μg/ml) is reported as 76.1%. For the same compound, the inhibition at 1 µg/mL ([2]; CTLL-2, 72 hrs, second run (control 30168 cpm), 1 μg/ml) was 94.9%, the “Number of PFC per 1 × 10^7 cell” value ([3]; Table 12B, 10 mg/kg/day) was 6.7 ± 1.2 × 10^3 /1 × 10^7 cell and the “Number of PFC per spleen” value ([3]; Table 12B, 10 mg/kg/day) was 8.5 ± 1.9 × 10^4 /spleen. For the same compound, the Body weight ([4]; Table 12B, 10 mg/kg/day) was 18 ± 1 g, the “Number of spleen cells” value ([4]; Table 12B, 10 mg/kg/day) was 1.3 ± 0.2 × 10^8 cell and the Wet weight spleen ([4]; Table 12B, 10 mg/kg/day) was 103 ± 30 mg. The Wet weight thymus ([4]; Table 12B, 10 mg/kg/day) was 25 ± 9 mg.
